The term IC50 denotes the point on the concentration scale where inhibition reaches its midpoint.

The source of these data is patent US10711004B2 (Genentech, Inc., priority 2018, dated 2020).

Like-named read-outs stand apart in the source and are kept apart here.

This assay deals with human TRPA1 channel (Homo sapiens (Human), UniProt O75762). The assay can be described thus: hTRPA1 CHO Ca2+ FLIPR Tetra assay, block of cinnamaldehyde induced calcium influx. It counts as cell-based. The conditions noted are these: CHO cells expressing TRPA1, Hill coefficient fixed to 1.5. The essentials:
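IC50 values come from fixed-Hill fits of inhibition of cinnamaldehyde-induced (about EC50 level) calcium influx measured by FLIPR Tetra. Before agonist, TRPA1-expressing CHO cells loaded with calcium indicator were exposed to compound for 10 or 90 min at room temperature in HEPES-buffered HBSS, pH 7.4, with 0.02% BSA.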

Where [1] appears, read: read-out: hTRPA1 IC50 (10 min), compounds incubated 10 minutes at room temperature before cinnamaldehyde agonist.
Where [2] appears, read: read-out: hTRPA1 IC50 (90 min), compounds incubated 90 minutes at room temperature before cinnamaldehyde agonist.

Chain of human TRPA1 channel (O75762 whole entry): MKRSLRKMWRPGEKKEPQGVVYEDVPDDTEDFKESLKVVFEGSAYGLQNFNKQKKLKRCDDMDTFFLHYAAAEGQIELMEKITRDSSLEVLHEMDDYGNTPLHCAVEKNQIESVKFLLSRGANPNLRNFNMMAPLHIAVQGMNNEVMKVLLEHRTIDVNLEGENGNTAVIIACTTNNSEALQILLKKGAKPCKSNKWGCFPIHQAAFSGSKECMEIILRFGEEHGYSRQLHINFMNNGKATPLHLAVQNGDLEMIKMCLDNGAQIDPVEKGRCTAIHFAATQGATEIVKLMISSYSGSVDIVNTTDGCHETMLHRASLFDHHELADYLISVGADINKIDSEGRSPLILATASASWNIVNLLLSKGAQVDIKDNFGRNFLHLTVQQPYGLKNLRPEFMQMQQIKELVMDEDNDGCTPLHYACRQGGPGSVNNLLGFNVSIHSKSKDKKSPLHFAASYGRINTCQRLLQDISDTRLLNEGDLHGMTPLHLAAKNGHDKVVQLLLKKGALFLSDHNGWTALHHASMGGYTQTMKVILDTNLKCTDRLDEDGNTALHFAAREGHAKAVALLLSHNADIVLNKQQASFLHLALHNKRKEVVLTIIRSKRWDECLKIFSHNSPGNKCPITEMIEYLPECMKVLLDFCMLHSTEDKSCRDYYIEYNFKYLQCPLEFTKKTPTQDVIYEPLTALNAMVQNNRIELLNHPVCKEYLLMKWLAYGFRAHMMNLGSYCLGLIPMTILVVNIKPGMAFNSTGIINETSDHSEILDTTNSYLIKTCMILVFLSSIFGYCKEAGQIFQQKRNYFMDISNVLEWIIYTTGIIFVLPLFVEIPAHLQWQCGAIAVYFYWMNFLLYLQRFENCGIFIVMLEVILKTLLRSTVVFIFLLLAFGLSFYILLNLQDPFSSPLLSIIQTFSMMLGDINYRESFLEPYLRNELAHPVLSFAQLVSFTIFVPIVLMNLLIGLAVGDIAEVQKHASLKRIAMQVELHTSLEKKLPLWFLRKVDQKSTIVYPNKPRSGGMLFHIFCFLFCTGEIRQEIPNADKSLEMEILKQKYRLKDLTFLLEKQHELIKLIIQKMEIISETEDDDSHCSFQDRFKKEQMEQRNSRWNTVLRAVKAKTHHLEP

On to `Cn1cnc2nnn(Cc3nc([C@H]4[C@@H]5C=C(c6ccccc6)C[C@@H]54)no3)c(=O)c21` [Example Compound 259, 5-methyl-3-[[3-[(1S,5S,6R)-3-phenyl-6-bicyclo[3.1.0]hex-2-enyl]-1,2,4-oxadiazol-5-yl]methyl]imidazo[4,5-d]triazin-4-one], for which the IC50 by setting is: under setting [1], 25.1 nM; under setting [2], 16 nM.
In the same order, the values of `COCCNc1nc2ncn(Cc3nc([C@@H]4[C@H]5C=C(c6ccccc6)C[C@H]54)no3)c(=O)c2n1C` [Example Compound 260, 8-(2-methoxyethylamino)-7-methyl-1-[[3-[(1R,5R,6S)-3-phenyl-6-bicyclo[3.1.0]hex-2-enyl]-1,2,4-oxadiazol-5-yl]methyl]purin-6-one] are 42.6 nM and 35 nM.
In the same order, the values of `Nc1ccc2c(=O)n(Cc3nc([C@H]4[C@@H]5CN(c6cccc(F)c6)C[C@@H]54)no3)cnc2n1` [Example Compound 261, 7-amino-3-[[3-[(1R,5S)-3-(3-fluorophenyl)-3-azabicyclo[3.1.0]hexan-6-yl]-1,2,4-oxadiazol-5-yl]methyl]pyrido[2,3-d]pyrimidin-4-one] are 9.73 nM and 4.3 nM.
For the compound `CNc1nc2ncn(Cc3nc([C@@H]4[C@H]5C=C(c6ccccc6)C[C@H]54)no3)c(=O)c2n1C` [Example Compound 262, 7-methyl-8-(methylamino)-1-[[3-[(1R,5R,6S)-3-phenyl-6-bicyclo[3.1.0]hex-2-enyl]-1,2,4-oxadiazol-5-yl]methyl]purin-6-one], the half-maximal inhibitory concentration (IC50) was 33.5 nM under setting [1] and 14 nM under setting [2].
Taken in the same sequence, the figures for `Cn1c(Cl)nc2ncn(Cc3nc([C@@H]4[C@H]5C=C(c6ccccc6)C[C@H]54)no3)c(=O)c21` [Example Compound 263, 8-chloro-7-methyl-1-[[3-[(1R,5R,6S)-3-phenyl-6-bicyclo[3.1.0]hex-2-enyl]-1,2,4-oxadiazol-5-yl]methyl]purin-6-one] were 15.8 nM and 6.5 nM.
Taken in the same sequence, the figures for `Cn1cnc2ncn(Cc3nc([C@@H]4[C@H]5C=C(c6ccc7c(cnn7C)c6)C[C@H]54)no3)c(=O)c21` [Example Compound 264, 7-methyl-1-[[3-[(1R,5R,6S)-3-(1-methylindazol-5-yl)-6-bicyclo[3.1.0]hex-2-enyl]-1,2,4-oxadiazol-5-yl]methyl]purin-6-one] were 29 nM and 14 nM.
Taken in the same sequence, the figures for `Cn1c(=O)ccc2ncn(Cc3nc([C@@H]4[C@H]5C=C(c6ccccc6)C[C@H]54)no3)c(=O)c21` [Example Compound 265, 5-methyl-3-[[3-[(1R,5R,6S)-3-phenyl-6-bicyclo[3.1.0]hex-2-enyl]-1,2,4-oxadiazol-5-yl]methyl]pyrido[3,2-d]pyrimidine-3,6-dione] were 16.1 nM and 12 nM.
For the compound `N#Cc1ccc2c(=O)n(Cc3nc([C@@H]4[C@H]5C=C(c6ccccc6)C[C@H]54)no3)cnc2n1` [Example Compound 266, 4-oxo-3-[[3-[(1R,5R,6S)-3-phenyl-6-bicyclo[3.1.0]hex-2-enyl]-1,2,4-oxadiazol-5-yl]methyl]pyrido[2,3-d]pyrimidine-7-carbonitrile], the half-maximal inhibitory concentration (IC50) runs as follows: under setting [1], 54.6 nM; under setting [2], 39 nM.
In the same order, the values of `Cn1cnc2ncn(Cc3nc([C@H]4[C@@H]5C=C(c6ccc7[nH]ncc7c6)C[C@@H]54)no3)c(=O)c21` [Example Compound 268, 7-methyl-1-[[3-[(1S,5S,6R)-3-(1H-indazol-5-yl)-6-bicyclo[3.1.0]hex-2-enyl]-1,2,4-oxadiazol-5-yl]methyl]purin-6-one] are 20 nM and 12 nM.
In the same order, the values of `Cn1cnc2ncn(Cc3nc([C@H]4[C@@H]5C=C(c6ccc(F)cc6F)C[C@@H]54)no3)c(=O)c21` [Example Compound 269, 7-methyl-1-[[3-[(1S,5S,6R)-3-(2,4-difluorophenyl)-6-bicyclo[3.1.0]hex-2-enyl]-1,2,4-oxadiazol-5-yl]methyl]purin-6-one] are 6.96 nM and 4.6 nM.
